Measurements taken from ChEMBL document CHEMBL1201862, “PubChem BioAssay data set” (2004).
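All cell lines were grown in 96-well plates and treated with compound for 48 hours. GI50 marks 50% less growth.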 The source made the active and inactive calls. Cut-off read from the data, not from the text of the source: active = GI50 up to about 1.1 µM and inactive = higher.

How the values were obtained:
Assay in all cases: NCI anticancer screen, dose series, 48 h
LXFL 529 = tested on: LXFL 529
SNB-78 = tested on: SNB-78
XF498 = tested on: XF498
HOP-18 = tested on: HOP-18
KM-20L2 = tested on: KM-20L2
DLD-1 = tested on: DLD-1
M19-MEL = tested on: M19-MEL
DMS-114 = tested on: DMS-114
RXF 631 = tested on: RXF 631

Row | Structure (SMILES) | GI50 (LXFL 529) | GI50 (SNB-78) | GI50 (XF498) | GI50 (HOP-18) | GI50 (KM-20L2) | GI50 (DLD-1) | GI50 (M19-MEL) | GI50 (DMS-114) | GI50 (RXF 631)
1 | CN(C)c1c([O-])c(=[N+](C)C)c1=O | > 100 µM (inactive) | > 100 µM (inactive) | > 100 µM (inactive) |  |  |  |  |  | 
2 | COc1cc2cc(c1Cl)N(C)C(=O)C[C@H](OC(=O)[C@H](C)N(C)C(C)=O)[C@]1(C)O[C@H]1[C@H](C)[C@@H]1C[C@@](O)(NC(=O)O1)[C@H](OC)/C=C/C=C(/C)C2 | 0.01 µM (active) | 0.025 µM (active) | 0.0628 µM (active) | 0.695 µM (active) | 0.0308 µM (active) | 0.025 µM (active) | 0.0628 µM (active) | 0.0323 µM (active) | 
3 | O=C1CC2C(=O)N(Cc3ccccc3)C1C=C2S(=O)(=O)c1ccccc1 (stereo not given) | > 100 µM (inactive) | > 100 µM (inactive) | > 100 µM (inactive) | > 100 µM (inactive) | > 100 µM (inactive) | > 100 µM (inactive) | > 100 µM (inactive) | > 100 µM (inactive) | 
4 | COC1CC(OS(=O)(=O)c2ccc(C)cc2)C(OC(=O)c2ccccc2)C(C)O1 (stereo not given) | > 10 µM (inactive) | > 10 µM (inactive) | > 100 µM (inactive) | > 10 µM (inactive) | > 10 µM (inactive) | > 10 µM (inactive) | > 10 µM (inactive) | > 100 µM (inactive) | 
5 | CC1(C)CCc2cc3c(cc2O1)OCC1c2cc4c(cc2OC31)OCO4 (stereo not given) | > 100 µM (inactive) |  | 52.1 µM (inactive) | > 100 µM (inactive) | > 100 µM (inactive) | > 100 µM (inactive) | 82.4 µM (inactive) | > 100 µM (inactive) | 55.3 µM (inactive)
6 | CCOC(=O)Cc1csc(Nc2ccc(OCC)cc2)n1 | 87.3 µM (inactive) | > 100 µM (inactive) | 38.7 µM (inactive) | > 100 µM (inactive) | > 100 µM (inactive) | > 100 µM (inactive) | > 100 µM (inactive) | 69.2 µM (inactive) | > 100 µM (inactive)
7 | Cc1cc2c3ccccc3n(C)c2c2c1C(=O)c1ccccc1C2=O | 16.9 µM (inactive) |  | 15.9 µM (inactive) |  |  | 14.6 µM (inactive) | 3.01 µM (inactive) | 17.1 µM (inactive) | 21.9 µM (inactive)
8 | COc1ccc(C2=C3c4cc(OC)c(OC)cc4CCN3C(=S)SS2)cc1OC | 52.5 µM (inactive) | 80.4 µM (inactive) |  | > 100 µM (inactive) | 75.9 µM (inactive) | 33.7 µM (inactive) | 53.2 µM (inactive) | 65.2 µM (inactive) | 
9 | CCC1(OC(=O)CNC)C(=O)OCc2c1cc1n(c2=O)Cc2cc3ccccc3nc2-1 (stereo not given) | 0.207 µM (active) | 0.263 µM (active) |  | 0.0177 µM (active) | 0.0336 µM (active) | 0.294 µM (active) |  |  | < 0.01 µM (active)
10 | COC(=O)C(C(=O)C(=O)Nc1c(Cl)cc([N+](=O)[O-])cc1Cl)c1nc2cc(C)c(C)cc2nc1O (stereo not given) | > 100 µM (inactive) | > 100 µM (inactive) |  | 72.6 µM (inactive) | > 100 µM (inactive) | > 100 µM (inactive) | > 100 µM (inactive) | 76.4 µM (inactive) | > 100 µM (inactive)
11 | CC#Cc1c(C#CC)c(OC)c2c(c1OC)C(=O)c1ccccc1C2=O | 54.2 µM (inactive) |  | > 100 µM (inactive) |  | > 100 µM (inactive) | 76 µM (inactive) | > 100 µM (inactive) | 20.7 µM (inactive) | 
12 | NNC(=S)N/N=C(/C(=O)Nc1cc(Cl)ccc1Cl)C1C(=O)Nc2ccccc2[S+]1[O-] (stereo not given) | > 100 µM (inactive) | > 100 µM (inactive) | > 100 µM (inactive) | > 100 µM (inactive) | > 100 µM (inactive) | > 100 µM (inactive) | > 100 µM (inactive) | > 100 µM (inactive) | 
